Consider seven compounds from ChEMBL document CHEMBL5579814, “Analogues of the pan-selectin antagonist rivipansel (GMI-1070)” (Eur J Med Chem, 2024).

The nature of assay [1]: Inhibition of horseradish peroxidase coupled sialyl Lewisa-polyacrylamide polymer binding to human P-selectin/IgG chimera measured after 2 hrs in presence of TMB by colorimetric assay.
Assay [2] concerns the target T1, E-selectin (Homo sapiens, UniProt P16581).
T1 sequence (P16581 whole entry): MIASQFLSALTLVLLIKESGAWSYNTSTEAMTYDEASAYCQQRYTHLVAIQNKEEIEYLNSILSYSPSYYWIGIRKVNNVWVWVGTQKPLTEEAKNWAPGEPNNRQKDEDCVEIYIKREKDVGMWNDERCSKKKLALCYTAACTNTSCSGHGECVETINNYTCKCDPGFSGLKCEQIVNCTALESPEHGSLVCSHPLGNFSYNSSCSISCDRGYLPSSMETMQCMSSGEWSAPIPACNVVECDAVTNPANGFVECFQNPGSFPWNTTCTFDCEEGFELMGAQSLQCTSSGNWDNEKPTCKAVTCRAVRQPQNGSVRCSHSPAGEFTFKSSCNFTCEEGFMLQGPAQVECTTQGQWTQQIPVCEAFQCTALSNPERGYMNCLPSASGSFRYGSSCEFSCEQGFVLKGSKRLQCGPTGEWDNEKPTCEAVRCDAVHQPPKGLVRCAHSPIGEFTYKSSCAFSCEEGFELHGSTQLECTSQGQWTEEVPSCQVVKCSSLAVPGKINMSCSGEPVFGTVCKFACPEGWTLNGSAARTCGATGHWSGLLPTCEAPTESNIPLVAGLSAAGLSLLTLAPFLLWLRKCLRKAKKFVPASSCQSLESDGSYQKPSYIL
Put plainly: Binding affinity to E-selectin SCR2 domain (unknown origin) by isothermal titration calorimetry. In general terms: ITC needs no label: the signal is the heat of the interaction.

Assay [3] addresses T1, E-selectin. The assay can be described thus: Binding affinity to sialyl LewisX mimetic 21a pretreated Blue-NHS-labelled E-selectin Lec-EGF/SCR1/SCR2 domain (unknown origin) measured after 20 mins by microscale thermophoresis. Background: Microscale thermophoresis detects binding through changes in fluorescence in a small temperature gradient.

In general, IC50 refers to the concentration needed to halve the response being measured. A word on the Kd: it is a measure of binding affinity in units of concentration.

Turning to `CC[C@H]1C(C(=O)NCCCc2cn(CCCCC(=O)Nc3cc(S(=O)(=O)O)cc4cc(S(=O)(=O)O)cc(S(=O)(=O)O)c34)nn2)CC[C@@H](O[C@@H]2O[C@H](CO)[C@H](O)[C@H](O[C@@H](CC3CCCCC3)C(=O)O)[C@H]2OC(=O)c2ccccc2)[C@@H]1O[C@@H]1O[C@@H](C)[C@@H](O)[C@@H](O)[C@@H]1O` (stereo partly drawn), in assay [1], the IC50 turned out to be 210 µM.

In the case of `CC[C@@H]1[C@@H](O[C@@H]2O[C@@H](C)[C@@H](O)[C@@H](O)[C@@H]2O)[C@H](O[C@@H]2O[C@H](CO)[C@H](O)[C@H](O[C@@H](CC3CCCCC3)C(=O)O)[C@H]2OC(=O)c2ccccc2)CC[C@@H]1C(=O)NCCCc1cn(CCC(=O)Nc2cc(S(=O)(=O)O)cc3cc(S(=O)(=O)O)cc(S(=O)(=O)O)c23)nn1`, the IC50 in assay [1] came out at 94 µM.

For `CC[C@H]1C(C(=O)NCCCc2cn(CCCC(=O)Nc3cc(S(=O)(=O)O)cc4cc(S(=O)(=O)O)cc(S(=O)(=O)O)c34)nn2)CC[C@@H](O[C@@H]2O[C@H](CO)[C@H](O)[C@H](O[C@@H](CC3CCCCC3)C(=O)O)[C@H]2OC(=O)c2ccccc2)[C@@H]1O[C@@H]1O[C@@H](C)[C@@H](O)[C@@H](O)[C@@H]1O` (stereo partly drawn), the IC50 in assay [1] came to 82 µM.

In assay [2], `C[C@@H]1O[C@@H](O[C@@H]2CCCC[C@H]2O[C@@H]2O[C@H](CO)[C@H](O)[C@H](O[C@@H](CC3CCCCC3)C(=O)O)[C@H]2O)[C@@H](O)[C@H](O)[C@@H]1O` showed a Kd of 60.7 µM.

For the compound `C[C@@H]1O[C@@H](O[C@@H]2[C@@H](NC(=O)c3cc(=O)[nH]c(=O)[nH]3)C[C@@H](C(=O)NCCNC(=O)COCCOCC(=O)Nc3cc(S(=O)(=O)O)cc4cc(S(=O)(=O)O)cc(S(=O)(=O)O)c34)C[C@H]2O[C@@H]2O[C@H](CO)[C@H](O)[C@H](O[C@@H](CC3CCCCC3)C(=O)O)[C@H]2OC(=O)c2ccccc2)[C@@H](O)[C@H](O)[C@@H]1O` [RIVIPANSEL], the IC50 in assay [1] worked out at 423 µM.

Take `CO[C@@H]1O[C@H](CO)[C@@H](O[C@@H]2O[C@H](CO)[C@H](O)[C@H](O[C@]3(C(=O)O)C[C@H](O)[C@@H](NC(C)=O)[C@H]([C@H](O)[C@H](O)CO)O3)[C@H]2O)[C@H](O[C@@H]2O[C@@H](C)[C@@H](O)[C@@H](O)[C@@H]2O)[C@H]1NC(C)=O`: the IC50 in assay [1] was at least 7000 µM. Also, the dissociation constant Kd in assay [3] is 738 µM.

Regarding `COC(=O)[C@@H]1C[C@H](NC(=O)c2cc(=O)[nH]c(=O)[nH]2)[C@@H](O[C@@H]2O[C@@H](C)[C@@H](O)[C@@H](O)[C@@H]2O)[C@H](O[C@@H]2O[C@H](CO)[C@H](O)[C@H](O[C@@H](CC3CCCCC3)C(=O)O)[C@H]2OC(=O)c2ccccc2)C1`, the half-inhibitory concentration (IC50) in assay [1] came to 3390 µM.
